Data as given in patent US10172863B2, “Purine derivatives useful as HSP90 inhibitors” (Sloan-Kettering Institute for Cancer Research, priority 2009, dated 2019).

Each molecule was assayed on SKBr3 cell Hsp90 (assay: EC50 for Hsp90 binding in SKBr3 cell lysate). Conditions: read-out: EC50, binding to SKBr3 cell Hsp90.

Row | SMILES | EC50 [nM]
1 | CC(C)NCCCn1c(Sc2cc3c(cc2-c2cc(C(F)(F)F)cc(C(F)(F)F)c2)OCO3)nc2c(N)ncnc21 [Compound 4A-3, 8-(6-(3,5-bis(trifluoromethyl)phenyl)benzo[d][1,3]dioxol-5-ylthio)-9-(3-(isopropylamino)propyl)-9H-purin-6-amine] | > 100000
2 | COc1ccc(-c2cc[nH]n2)c(Sc2nc3c(N)ncnc3n2CCNCC(C)(C)C)c1 [Compound 7E-6, 8-(5-methoxy-2-(1H-pyrazol-3-yl)phenylthio)-9-(2-(neopentylamino)ethyl)-9H-purin-6-amine] | 32
3 | CC(C)NCCCn1c(Sc2cc3c(cc2-c2ccc(N(C)C)cc2)OCO3)nc2c(N)ncnc21 [Compound 4A-5, 8-(6-(4-(dimethylamino)phenyl)benzo[d][1,3]dioxol-5-ylthio)-9-(3-(isopropylamino)propyl)-9H-purin-6-amine] | 2520
4 | COc1ccc(-c2ccco2)c(Sc2nc3c(N)ncnc3n2CCNCC(C)(C)C)c1 [Compound 7C-13, 8-(2-(furan-2-yl)-5-methoxyphenylthio)-9-(2-(neopentylamino)ethyl)-9H-purin-6-amine] | 84
5 | CC(C)NCCCn1c(Sc2cc3c(cc2CC#N)OCO3)nc2c(N)ncnc21 [Compound 4E-3, 2-(6-((6-amino-9-(3-(isopropylamino)propyl)-9H-purin-8-yl)thio)benzo[d][1,3]dioxol-5-yl)acetonitrile] | 1130
6 | CC(C)(C)CNCCn1c(Sc2cc3c(cc2-c2ccco2)OCO3)nc2c(N)ncnc21 [Compound 4C-5, 8-(6-(furan-2-yl)benzo[d][1,3]dioxol-5-ylthio)-9-(2-(neopentylamino)ethyl)-9H-purin-6-amine] | 6.5
7 | CC(C)NCCCn1c(Sc2cc3c(cc2-c2ccco2)OCO3)nc2c(N)ncnc21 [Compound 4C-1, 8-(6-(furan-2-yl)benzo[d][1,3]dioxol-5-ylthio)-9-(3-(isopropylamino)propyl)-9H-purin-6-amine] | 22
8 | CC(C)NCCCn1c(Sc2cc3c(cc2-c2ccc(Br)cc2)OCO3)nc2c(N)ncnc21 [Compound 4A-7, 8-(6-(4-bromophenyl)benzo[d][1,3]dioxol-5-ylthio)-9-(3-(isopropylamino)propyl)-9H-purin-6-amine] | 1380
9 | CC(C)NCCCn1c(Sc2cc3c(cc2-c2cc[nH]n2)OCCO3)nc2c(N)ncnc21 [Compound 5D-2, 8-((7-(1H-pyrazol-3-yl)-2,3-dihydrobenzo[b][1,4]dioxin-6-yl)thio)-9-(3-(isopropylamino)propyl)-9H-purin-6-amine] | 11.2
10 | CC(C)NCCCn1c(Sc2cc3c(cc2-c2ccc(C=O)cc2)OCO3)nc2c(N)ncnc21 [Compound 4A-8, 4-(6-(6-amino-9-(3-(isopropylamino)propyl)-9H-purin-8-ylthio)benzo[d][1,3]dioxol-5-yl)benzaldehyde] | > 3000
11 | CC(C)NCCCn1c(Sc2cc3c(cc2C2C=CCC2)OCO3)nc2c(N)ncnc21 (centres unmarked) [Compound 4I-12, 8-(6-(cyclopent-2-enyl)benzo[d][1,3]dioxol-5-ylthio)-9-(3-(isopropylamino)propyl)-9H-purin-6-amine] | 394
12 | NCCCCCCNCCCn1c(Sc2cc3c(cc2-c2cc(C(F)(F)F)cc(C(F)(F)F)c2)OCO3)nc2c(N)ncnc21 [Compound 4A-4, N1-(3-(6-amino-8-(6-(3,5-bis(trifluoromethyl)phenyl)benzo[d][1,3]dioxol-5-ylthio)-9H-purin-9-yl)propyl)hexane-1,6-diamine] | 15000
13 | COc1ccc(-c2cccs2)c(Sc2nc3c(N)ncnc3n2CCNCC(C)(C)C)c1 [Compound 7D-3, 8-(5-methoxy-2-(thiophen-2-yl)phenylthio)-9-(2-(neopentylamino)ethyl)-9H-purin-6-amine] | 240
14 | CC(C)NCCCn1c(Sc2cc3c(cc2C2CC=CO2)OCO3)nc2c(N)ncnc21 (centres unmarked) [Compound 4C-40, 8-(6-(2,3-dihydrofuran-2-yl)benzo[d][1,3]dioxol-5-ylthio)-9-(3-(isopropylamino)propyl)-9H-purin-6-amine] | 509
15 | CC(C)(C)CNCCn1c(Sc2cc3c(cc2-c2cc[nH]n2)OCO3)nc2c(N)ncnc21 [Compound 4G-9, 8-(6-(1H-pyrazol-3-yl)benzo[d][1,3]dioxol-5-ylthio)-9-(2-(neopentylamino)ethyl)-9H-purin-6-amine] | 5.5
16 | CC(C)NCCCn1c(Sc2cc3c(cc2I)OCCO3)nc2c(N)ncnc21 [Compound 5A-1, 8-(7-Iodo-2,3-dihydrobenzo[b][1,4]dioxin-6-ylthio)-9-(3-(isopropylamino)propyl)-9H-purin-6-amine] | 34.5
17 | CC(C)NCCCn1c(Sc2cc3c(cc2-c2ncco2)OCCO3)nc2c(N)ncnc21 [Compound 5B-34, 9-(3-(isopropylamino)propyl)-8-((7-(oxazol-2-yl)-2,3-dihydrobenzo[b][1,4]dioxin-6-yl)thio)-9H-purin-6-amine] | 3.5
18 | CC(C)NCCCn1c(Sc2cc3c(cc2C2C=CCN2)OCO3)nc2c(N)ncnc21 (centres unmarked) [Compound 4H-7, 8-(6-(2,5-dihydro-1H-pyrrol-2-yl)benzo[d][1,3]dioxol-5-ylthio)-9-(3-(isopropylamino)propyl)-9H-purin-6-amine] | 26700

The remaining molecules from weak to strong by EC50, led by results:

Row | EC50 [nM] | SMILES
19 | 1030 | COc1ccc(-c2cc3c(cc2Sc2nc4c(N)ncnc4n2CCCNC(C)C)OCO3)cc1 [Compound 4A-6, 9-(3-(isopropylamino)propyl)-8-(6-(4-methoxyphenyl)benzo[d][1,3]dioxol-5-ylthio)-9H-purin-6-amine]
20 | 645 | CC(C)NCCCn1c(Sc2cc3c(cc2-c2ccccc2)OCO3)nc2c(N)ncnc21 [Compound 4A-1, 9-(3-(isopropylamino)propyl)-8-(6-phenylbenzo[d][1,3]dioxol-5-ylthio)-9H-purin-6-amine]
21 | 161 | CC(C)NCCCn1c(Sc2cc3c(cc2-c2cc[nH]c2)OCO3)nc2c(N)ncnc21 [Compound 4H-3, 8-(6-(1H-pyrrol-3-yl)benzo[d][1,3]dioxol-5-ylthio)-9-(3-(isopropylamino)propyl)-9H-purin-6-amine]
22 | 86 | CC(C)NCCCn1c(Sc2cc3c(cc2-c2ccoc2)OCO3)nc2c(N)ncnc21 [Compound 4C-2, 8-(6-(furan-3-yl)benzo[d][1,3]dioxol-5-ylthio)-9-(3-(isopropylamino)propyl)-9H-purin-6-amine]
23 | 80 | CC(C)NCCCn1c(Sc2cc3c(cc2-c2cccs2)OCO3)nc2c(N)ncnc21 [Compound 4D-1, 9-(3-(isopropylamino)propyl)-8-(6-(thiophen-2-yl)benzo[d][1,3]dioxol-5-ylthio)-9H-purin-6-amine]
24 | 37 | Cc1ccc(-c2cc3c(cc2Sc2nc4c(N)ncnc4n2CCCNC(C)C)OCO3)o1 [Compound 4C-8, 9-(3-(isopropylamino)propyl)-8-(6-(5-methylfuran-2-yl)benzo[d][1,3]dioxol-5-ylthio)-9H-purin-6-amine]
25 | 18.5 | CC(C)(C)CNCCn1c(Sc2cc3c(cc2-c2cccs2)OCO3)nc2c(N)ncnc21 [Compound 4D-3, 9-(2-(neopentylamino)ethyl)-8-(6-(thiophen-2-yl)benzo[d][1,3]dioxol-5-ylthio)-9H-purin-6-amine]
26 | 6.9 | CC(C)NCCCn1c(Sc2cc3c(cc2-c2ccco2)OCCO3)nc2c(N)ncnc21 [Compound 5B-1, 8-((7-(furan-2-yl)-2,3-dihydrobenzo[b][1,4]dioxin-6-yl)thio)-9-(3-(isopropylamino)propyl)-9H-purin-6-amine]
